Experimental data: article PMC7465344 (Pharmaceuticals, 2020)

Tests used:
hA3 AR = molecular target: T1, hA3 AR (Homo sapiens, UniProt P0DMS8); assay: Competition binding of [125I]AB-MECA to hA3 AR in CHO cell membranes; details: for inhibition at 10 µM: read-out: hA3AR percentage of inhibition (I%)
T1 sequence (P0DMS8 1-318): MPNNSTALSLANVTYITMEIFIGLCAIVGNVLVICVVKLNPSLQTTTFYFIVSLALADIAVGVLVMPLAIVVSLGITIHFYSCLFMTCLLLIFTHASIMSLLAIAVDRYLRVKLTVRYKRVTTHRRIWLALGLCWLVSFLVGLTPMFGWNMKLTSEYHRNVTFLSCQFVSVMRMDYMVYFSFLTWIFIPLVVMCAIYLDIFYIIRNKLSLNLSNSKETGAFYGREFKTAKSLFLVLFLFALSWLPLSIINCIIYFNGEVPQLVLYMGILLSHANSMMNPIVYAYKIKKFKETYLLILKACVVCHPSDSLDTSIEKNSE
Description: (§1) For membrane preparation, the cells were washed with phosphate-buffered saline and scraped off T75 flasks in an ice-cold hypotonic buffer (5 mMTris-HCl, 1 mM EDTA, pH 7.4). The cell suspensions were homogenized with a Polytron, centrifuged for 30 min at 40,000× g at 4 °C and the resulting membrane pellets were used for competition binding experiments [44].
(§2) Non-specific binding was defined as binding in the presence of 1 μM DPCPX and was always <10% of the total binding [44]. […] Non-specific binding was defined as binding in the presence of 1 μM ABMECA and was always < 10% of the total binding [46]. Bound and free radioactivity were separated by filtering the assay mixture through Whatman GF/B glass fiber filters using a Brandel cell harvester (Brandel Instruments, Unterföhring, Germany).
(§3) The protein concentration was determined according to a Bio-Rad method with bovine albumin as a standard reference. […] Ki and IC50 values were calculated by the non-linear regression analysis using the equation for a sigmoid concentration-response curve (Graph-PAD Prism, San Diego, CA, USA).

hA1 AR = molecular target: T2, hA1 AR (Homo sapiens, UniProt P30542); assay: Competition binding of [3H]DPCPX to hA1 AR in CHO cell membranes
T2 sequence (P30542 1-326): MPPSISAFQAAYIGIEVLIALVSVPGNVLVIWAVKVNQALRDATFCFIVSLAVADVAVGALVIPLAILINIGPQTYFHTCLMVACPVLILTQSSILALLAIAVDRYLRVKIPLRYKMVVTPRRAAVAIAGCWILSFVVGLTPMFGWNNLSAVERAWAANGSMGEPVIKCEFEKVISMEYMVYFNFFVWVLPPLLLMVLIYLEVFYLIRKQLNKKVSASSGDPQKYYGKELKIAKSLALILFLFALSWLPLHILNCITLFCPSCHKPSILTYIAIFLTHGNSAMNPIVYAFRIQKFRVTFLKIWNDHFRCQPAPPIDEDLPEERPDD
Description: as §1, §2, §3

hA2B AR = molecular target: T3, hA2B AR (Homo sapiens, UniProt P29275); assay: Inhibition of NECA stimulated adenylyl cyclase activity (cAMP assay) in CHO cells expressing hA2B receptor; assay type: cell-based; details: for inhibition at 10 µM: CHO, at 10 μM of tested compound, cAMP assay, read-out: hA2BAR percentage of inhibition (I%); for IC50: NECA stimulated cAMP, hA2B CHO cells, read-out: hA2BAR IC50 (potency in cAMP assay)
T3 construct: expressed in transfected cells; host or cells: CHO cells
T3 sequence (P29275 1-332): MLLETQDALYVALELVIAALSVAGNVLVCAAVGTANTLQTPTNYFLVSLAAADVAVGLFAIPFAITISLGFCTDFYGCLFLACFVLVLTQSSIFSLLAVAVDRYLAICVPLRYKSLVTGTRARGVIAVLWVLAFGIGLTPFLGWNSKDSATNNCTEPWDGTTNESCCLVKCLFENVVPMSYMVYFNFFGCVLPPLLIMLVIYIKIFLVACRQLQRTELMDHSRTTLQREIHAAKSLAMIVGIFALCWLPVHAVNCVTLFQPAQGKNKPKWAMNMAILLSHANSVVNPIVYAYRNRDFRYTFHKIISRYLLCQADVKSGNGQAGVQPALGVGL
Description: At the end of the experiments, plates were read with the Perkin Elmer EnSight Multimode Plate Reader.

hA2A AR = hA2A AR (Homo sapiens, UniProt P29274); assay: Competition binding of [3H]ZM241385 to hA2A AR in CHO cell membranes
Chain of hA2A AR (P29274 whole entry): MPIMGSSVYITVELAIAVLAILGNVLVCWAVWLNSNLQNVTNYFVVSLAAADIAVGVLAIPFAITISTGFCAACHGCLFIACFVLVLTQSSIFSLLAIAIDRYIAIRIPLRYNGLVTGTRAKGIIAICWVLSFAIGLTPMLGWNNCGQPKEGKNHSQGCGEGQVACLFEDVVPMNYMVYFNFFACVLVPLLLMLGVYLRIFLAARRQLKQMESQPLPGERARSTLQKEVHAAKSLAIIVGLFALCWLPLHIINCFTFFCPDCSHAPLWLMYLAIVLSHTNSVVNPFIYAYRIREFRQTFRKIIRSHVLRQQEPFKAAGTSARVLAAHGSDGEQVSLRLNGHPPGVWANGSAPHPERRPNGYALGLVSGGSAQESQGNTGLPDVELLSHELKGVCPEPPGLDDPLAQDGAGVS
Description: as §1, §2, §3

Row | Ki (hA3 AR) [nM] | inhibition at 10 µM (hA3 AR) [%] | Ki (hA1 AR) [nM] | inhibition at 10 µM (hA2B AR) [%] | IC50 (hA2B AR) [nM] | Ki (hA2A AR) [nM] | melting point [°C] | SMILES
1 | > 10000 | 34 | 345 ± 28 | 23 | > 10000 | 29 ± 3 | 183 to 186 | CN(C)CCN1CCN(c2nc(N)c3nc(-c4ccco4)sc3n2)CC1 [compound 7, 5-(4-(2-(Dimethylamino)ethyl)piperazin-1-yl)-2-(furan-2-yl)thiazolo[5,4-d]pyrimidin-7-amine]
2 | > 10000 | 17 | 798 ± 72 | 26 | > 10000 | 92 ± 8 | 133 to 135 | Nc1nc(NCCN2CCN(Cc3ccccc3)CC2)nc2sc(-c3ccco3)nc12 [compound 12, N^5-(2-(4-Benzylpiperazin-1-yl)ethyl)-2-(furan-2-yl)thiazolo[5,4-d]pyrimidine-5,7-diamine]
3 | 197 ± 16 |  | 1210 ± 114 | 11 | > 10000 | 237 ± 17 | 203 to 204 | Nc1nc(N2CCN(CCc3ccccc3)CC2)nc2sc(-c3ccco3)nc12 [compound 4, 2-(Furan-2-yl)-5-(4-phenethylpiperazin-1-yl)thiazolo[5,4-d]pyrimidin-7-amine]
